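Tested at 5 concentrations; 48 h exposure; 96-well plates; endpoints linearly interpolated, else capped at highest concentration. GI50 = concentration required for 50% inhibition of growth.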 Calls of active or inactive are those of the source. Cut-off read from the data, not from the text of the source: active = GI50 up to about 1.1 µM and inactive = higher.
Tests used:
Assay in all cases: growth of human tumour cells (NCI), 48 h
T47D = tested on: T47D
COLO 205 = tested on: COLO 205
ACHN = tested on: ACHN
TK-10 = tested on: TK-10
K562 = tested on: K562
SNB-19 = tested on: SNB-19
Malme-3M = tested on: Malme-3M
MDA-MB-435 = tested on: MDA-MB-435
SF-268 = tested on: SF-268
OVCAR-8 = tested on: OVCAR-8
MCF7 = tested on: MCF7
U-251 = tested on: U-251
MDA-MB-231 = tested on: MDA-MB-231
SK-OV-3 = tested on: SK-OV-3
SW-620 = tested on: SW-620
SN12C = tested on: SN12C
NCI-H522 = tested on: NCI-H522
HOP-18 = tested on: HOP-18
M19-MEL = tested on: M19-MEL
SNB-78 = tested on: SNB-78

Measured: GI50

CN(C)c1ccc(/C=C2\C[C@H]3[C@@H]4CCc5cc(O)ccc5[C@H]4CC[C@]3(C)C2=O)cc1
inactive: T47D > 100 µM | COLO 205 64.7 µM | ACHN 56.1 µM | TK-10 > 100 µM | K562 > 100 µM | SNB-19 > 100 µM | Malme-3M > 100 µM | MDA-MB-435 > 100 µM | SF-268 21.3 µM | OVCAR-8 95.1 µM | MCF7 > 100 µM | U-251 36 µM | MDA-MB-231 16.5 µM | SK-OV-3 > 100 µM | SW-620 > 100 µM

NNc1nc2ccccc2s1
inactive: T47D 55.2 µM | COLO 205 > 100 µM | ACHN > 100 µM | TK-10 > 100 µM | K562 > 100 µM | SNB-19 > 100 µM | SN12C > 100 µM | Malme-3M > 100 µM | MDA-MB-435 > 100 µM | SF-268 > 100 µM | OVCAR-8 > 100 µM | NCI-H522 > 100 µM | MCF7 > 100 µM | U-251 > 100 µM | MDA-MB-231 > 100 µM | SW-620 > 100 µM

C1CCC(OC2CSC2)OC1 (centres undefined)
inactive: T47D > 100 µM | COLO 205 > 100 µM | ACHN > 100 µM | TK-10 > 100 µM | K562 > 100 µM | SNB-19 > 100 µM | SN12C > 100 µM | MDA-MB-435 > 100 µM | SF-268 > 100 µM | OVCAR-8 > 100 µM | NCI-H522 > 100 µM | MCF7 > 100 µM | U-251 > 100 µM | MDA-MB-231 > 100 µM | SK-OV-3 > 100 µM | SW-620 > 100 µM

CC1CC(Br)C(=O)O1 (centres undefined)
inactive: T47D > 100 µM | COLO 205 > 100 µM | ACHN > 100 µM | TK-10 > 100 µM | K562 47 µM | SNB-19 > 100 µM | SN12C > 100 µM | Malme-3M > 100 µM | MDA-MB-435 > 100 µM | SF-268 > 100 µM | OVCAR-8 > 100 µM | NCI-H522 > 100 µM | MCF7 > 100 µM | U-251 > 100 µM | MDA-MB-231 > 100 µM | SK-OV-3 > 100 µM | SW-620 > 100 µM

CCc1cc(=O)n(/C(C)=C/c2ccccc2)n1C
inactive: T47D > 100 µM | COLO 205 > 100 µM | ACHN > 100 µM | TK-10 > 100 µM | K562 > 100 µM | SNB-19 > 100 µM | SN12C > 100 µM | MDA-MB-435 > 100 µM | SF-268 > 100 µM | OVCAR-8 > 100 µM | MCF7 > 100 µM | U-251 > 100 µM | MDA-MB-231 > 100 µM | SK-OV-3 > 100 µM | SW-620 > 100 µM

CCOC(=O)C(C)N1C(=O)c2ccccc2S1(=O)=O (centres undefined)
inactive: COLO 205 > 100 µM | HOP-18 > 100 µM | K562 > 100 µM | SNB-19 > 100 µM | SN12C > 100 µM | Malme-3M > 100 µM | SF-268 > 100 µM | OVCAR-8 > 100 µM | M19-MEL > 100 µM | NCI-H522 > 100 µM | MCF7 > 100 µM | U-251 > 100 µM | SK-OV-3 > 100 µM | SW-620 > 100 µM

Cc1c2cnccc2c(C)c2c1c1ccccc1n2CCCCCCCl
inactive: COLO 205 28.2 µM | HOP-18 > 7.93 µM | K562 18.1 µM | SNB-19 40.4 µM | SN12C > 50 µM | Malme-3M > 50 µM | SF-268 > 45 µM | OVCAR-8 26 µM | M19-MEL 40 µM | NCI-H522 > 50 µM | MCF7 > 50 µM | U-251 35.1 µM | SK-OV-3 > 50 µM | SNB-78 32.9 µM | SW-620 30 µM

C#CC(C)(C)Oc1cc(OC)c2c(=O)c3ccccc3n(C)c2c1
inactive: T47D 2.84 µM | COLO 205 14.8 µM | ACHN 12.7 µM | TK-10 23.6 µM | K562 10.7 µM | SNB-19 14.7 µM | SN12C 10 µM | MDA-MB-435 11 µM | SF-268 11.6 µM | OVCAR-8 15.4 µM | MCF7 20.1 µM | U-251 30.3 µM | MDA-MB-231 15.2 µM | SK-OV-3 23 µM | SW-620 31.9 µM

CN(C)C(=O)OC1C(=O)N(C)c2ccc(Cl)cc2C2(c3ccccc3)N1C2(Cl)Cl (centres undefined)
inactive: COLO 205 > 100 µM | ACHN > 100 µM | TK-10 56.5 µM | K562 56.6 µM | SN12C 59.3 µM | Malme-3M > 100 µM | SF-268 > 100 µM | OVCAR-8 95.5 µM | M19-MEL > 100 µM | NCI-H522 46 µM | U-251 45.3 µM | SK-OV-3 82.8 µM | SW-620 > 100 µM

CCNc1nnc(-c2nsc3ccccc23)s1
inactive: COLO 205 > 100 µM | HOP-18 11.5 µM | ACHN 62.4 µM | TK-10 > 100 µM | K562 > 100 µM | SNB-19 16.3 µM | SN12C > 100 µM | SF-268 23.5 µM | OVCAR-8 57.8 µM | M19-MEL > 100 µM | U-251 31.3 µM | SNB-78 62.1 µM | SW-620 > 100 µM

CCCCCCCC/C=C\CCCCCCCCCCCC(=O)O [ERUCIC ACID]
inactive: COLO 205 20.2 µM | HOP-18 46.2 µM | K562 22.1 µM | SNB-19 30.8 µM | SN12C 32.6 µM | Malme-3M 47.9 µM | SF-268 52.4 µM | OVCAR-8 37.2 µM | M19-MEL 26.2 µM | NCI-H522 19.8 µM | MCF7 14.9 µM | U-251 37.9 µM | SK-OV-3 > 85.9 µM | SNB-78 44.4 µM | SW-620 31.6 µM

From ChEMBL document CHEMBL1201862, “PubChem BioAssay data set” (2004)
